From patent US20110287089A1, “USE OF A SACCHAROMYCES CEREVISIAE MITOCHONDRIAL NUCLEIC ACIDS FRACTION FOR IMMUNE STIMULATION” (priority 2009, published 2011)
Peptide text beside a SMILES is read from it. * marks the point of attachment. X1 = CCCCCCCCCCCCCCCC(=O)OCC(C*)OC(=O)CCCCCCCCCCCCCCC

Tests used:
hTLR2 = molecular target: T1, hTLR2 (Homo sapiens, UniProt O60603); type: cell-based
T1 construct: host or cells: HEK-293 (293/hTLR2-CD14, clone hTLR 2-luc)
Protocol: (§1) Cells: Human embryonic kidney cells 293 (HEK) were stably transfected with plasmids allowing for the constitutive expression of one or two Toll like Receptors of human origin (hTLR). The resulting cell lines 293/hTLR2-CD14, 293/hTLR3, 293/hTLR4-MD2-CD14, 293/hTLR5, 293/hTLR2/6, 293/hTLR7, 293/hTLR8 and 293/hTLR9 were purchased from InvivoGen (San Diego, Calif., USA). All cell lines were cultivated in the presence of Blasticidin S (10 μg/ml, InvivoGen) in Dulbecco's […] Eagle's medium (DMEM) supplemented with 10% fetal calf serum, 40 μg/ml Gentamycin, 2 mM Glutamine, 1 mM sodium pyruvate (Sigma) and 1× Non Essential Amino acids (NEAA, Gibco). In the case of 293/hTLR2-CD14 and 293/hTLR4-MD2-CD14 Hygromycin B was added to a concentration of 100 μg/ml. All eight cell lines were stably transfected with the NF-kB-inducible reporter plasmid pNiFty (InvivoGen). pNiFty encodes the firefly luciferase gene under control of an engineered ELAM1 promoter which combines five NF-kB sites and the proximal ELAM promoter. Stable transfectants were selected in the presence of 100 μg/ml Zeocin (InvivoGen). The emerging clones “hTLRx-luc” were characterized with respect to EC50 and fold-induction to the respective control TLR ligands. Clones with lowest EC50 and high fold inductions and good/acceptable growth behaviour were chosen.
(§2) In vitro TLR tests—method: Cells diluted in DMEM supplemented with 2% fetal calf serum, 40 μg/ml Gentamycin, 2 mM Glutamine, 1 mM sodium pyruvate (Sigma) and 1×MEM non essential amino acids (NEAA, Gibco) were seeded in 96 well plates. The next day. NA fraction (stock: 1 mg/ml) either alone or in combination with Lipofectin® (as described in Example 1) was added at a concentration of 16 μg/ml and 3-fold serial dilutions thereof. As positive controls, the cell lines were stimulated with a defined amount of their respective reference ligands. The day after stimulation (18-20 hours) later, cells were lysed in 100 μl buffer containing 125 mM Tris pH 7.8, 10 mM EDTA, 5 mM DTT and 5% Triton X-100. Firefly luciferase activity in 10 μl lysate was quantified by integrate measurement of flash luminescence over 1 sec (LB96 P Microlumat, Berthold) after addition of 50 μl luciferase revelation buffer (1× luciferase revelation buffer: 20 mM Tris pH 7.8, 1.07 mM MgCl2, 2.7 mM MgSO4, 0.1 mM EDTA, 33.3 mM DTT, 470 μM luciferine 530 μM ATP and 270 μM CoEnzyme A). The resulting relative light units (RLU) were expressed as percentage of induction compared to the control ligand and analyzed with the Graph Pad Prism 4 software using an equation for sigmoid dose response (determination of EC50).

hTLR2/6 = molecular target: T2, hTLR2/6 (Homo sapiens, UniProt O60603+Q9Y2C9); type: cell-based
T2 construct: host or cells: HEK-293 (293/hTLR2/6, clone hTLR 2/6-luc)
Protocol: as §1, §2

hTLR5 = molecular target: T3, hTLR5 (Homo sapiens, UniProt O60602); type: cell-based
T3 construct: host or cells: HEK-293 (293/hTLR5, clone hTLR 5-luc)
Protocol: as §1, §2

[1] = system: R9F specific CD8+ T cells secreting IFN-γ; assay: In vivo ELISpot gamma interferon (IFN-γ) after immunisation with HPV16E7; details: C57BL/6 mice; HPV16E7 protein 10 μg subcutaneously day 0, 7, 14, alone or with NA fraction (25 μg) or NA-B2 fraction (0.4 μg); splenocytes 7 days after last injection; FIG. 2
Protocol: Animals model: SPF healthy female C57BL/6 mice were obtained from Charles River (Les Oncins, France). The animals were 6-weeks-old upon arrival. At the beginning of experimentation, they were 7-week-old. The animals were housed in a single, exclusive room, air-conditioned to provide a minimum of 11 air changes per hour. The temperature and relative humidity ranges were within 20° C. and 24° C. and 40 to 70% respectively. Lighting was controlled automatically to give a cycle of 12 hours of light and 12 hours of darkness. Specific pathogen free status was checked by regular control of sentinel animals. Throughout the study the animals had access ad libitum to sterilized diet type RM1 (Dietex France, Saint Gratien). Sterile water was provided ad libitum via bottles.
IFN-γ ELIspot assay is a functional test to determine the ability of in vivo primed T cells to secrete IFN-γ upon re-stimulation in vitro with a specific peptide.
Animals were injected 3 times at a one week interval (day 0; day 7; day 14), subcutaneously (at the base of the tail) with preparations as described in Table 4.
Animals were then sacrificed 7 days after the last injection and their splenocytes were used to determine the frequency of R9F specific CD8+ T cells secreting IFN-γ upon re-stimulation. […]

hTLR3 = molecular target: T4, hTLR3 (Homo sapiens, UniProt O15455); type: cell-based
T4 construct: host or cells: HEK-293 (293/hTLR3, clone hTLR 3-luc)
T4 sequence (O15455 24-904): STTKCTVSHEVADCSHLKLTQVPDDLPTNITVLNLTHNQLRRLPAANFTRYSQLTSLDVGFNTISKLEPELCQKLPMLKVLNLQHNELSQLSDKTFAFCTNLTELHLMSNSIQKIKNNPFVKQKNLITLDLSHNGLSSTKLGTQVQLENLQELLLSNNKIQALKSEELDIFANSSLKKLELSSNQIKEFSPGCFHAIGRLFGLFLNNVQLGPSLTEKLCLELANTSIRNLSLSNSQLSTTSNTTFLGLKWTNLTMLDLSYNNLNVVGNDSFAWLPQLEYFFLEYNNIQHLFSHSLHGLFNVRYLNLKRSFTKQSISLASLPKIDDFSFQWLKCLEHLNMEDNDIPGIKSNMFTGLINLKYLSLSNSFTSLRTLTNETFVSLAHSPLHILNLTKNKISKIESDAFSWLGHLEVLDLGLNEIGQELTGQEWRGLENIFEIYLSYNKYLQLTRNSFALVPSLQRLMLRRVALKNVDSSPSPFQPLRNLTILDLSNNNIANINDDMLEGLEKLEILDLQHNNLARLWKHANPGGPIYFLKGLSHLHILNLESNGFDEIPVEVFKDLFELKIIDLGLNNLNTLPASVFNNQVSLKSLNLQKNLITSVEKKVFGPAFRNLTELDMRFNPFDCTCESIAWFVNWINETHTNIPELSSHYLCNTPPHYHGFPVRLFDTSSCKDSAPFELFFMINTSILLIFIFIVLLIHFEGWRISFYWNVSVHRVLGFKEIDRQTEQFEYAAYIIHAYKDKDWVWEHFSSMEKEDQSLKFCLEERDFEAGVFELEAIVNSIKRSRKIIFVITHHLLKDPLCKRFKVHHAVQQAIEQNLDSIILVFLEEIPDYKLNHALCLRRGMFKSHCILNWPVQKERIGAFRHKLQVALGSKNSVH
Protocol: as §1, §2

T3 sequence (O60602 21-858): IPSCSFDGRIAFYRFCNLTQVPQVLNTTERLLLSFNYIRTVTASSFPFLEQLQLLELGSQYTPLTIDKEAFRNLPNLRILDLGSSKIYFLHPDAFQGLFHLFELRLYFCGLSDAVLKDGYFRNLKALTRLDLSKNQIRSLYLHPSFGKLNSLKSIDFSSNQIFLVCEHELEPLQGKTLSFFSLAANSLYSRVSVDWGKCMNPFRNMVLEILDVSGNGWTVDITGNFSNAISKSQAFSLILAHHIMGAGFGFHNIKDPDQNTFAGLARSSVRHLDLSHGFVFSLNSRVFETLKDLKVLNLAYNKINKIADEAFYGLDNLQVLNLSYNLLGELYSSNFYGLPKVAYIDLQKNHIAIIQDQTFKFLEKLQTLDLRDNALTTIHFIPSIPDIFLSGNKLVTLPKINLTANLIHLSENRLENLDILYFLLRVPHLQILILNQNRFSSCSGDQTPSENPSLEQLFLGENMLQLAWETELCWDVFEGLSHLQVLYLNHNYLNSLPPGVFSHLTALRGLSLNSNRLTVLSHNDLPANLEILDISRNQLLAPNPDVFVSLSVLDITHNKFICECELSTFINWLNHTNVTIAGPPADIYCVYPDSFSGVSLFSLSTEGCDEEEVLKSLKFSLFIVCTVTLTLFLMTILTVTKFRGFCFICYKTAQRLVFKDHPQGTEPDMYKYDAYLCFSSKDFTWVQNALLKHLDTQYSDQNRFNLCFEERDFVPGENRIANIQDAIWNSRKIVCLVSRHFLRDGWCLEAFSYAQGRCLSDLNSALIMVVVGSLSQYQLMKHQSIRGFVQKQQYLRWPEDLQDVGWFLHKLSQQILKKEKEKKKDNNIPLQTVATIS
T1 sequence (O60603 21-784): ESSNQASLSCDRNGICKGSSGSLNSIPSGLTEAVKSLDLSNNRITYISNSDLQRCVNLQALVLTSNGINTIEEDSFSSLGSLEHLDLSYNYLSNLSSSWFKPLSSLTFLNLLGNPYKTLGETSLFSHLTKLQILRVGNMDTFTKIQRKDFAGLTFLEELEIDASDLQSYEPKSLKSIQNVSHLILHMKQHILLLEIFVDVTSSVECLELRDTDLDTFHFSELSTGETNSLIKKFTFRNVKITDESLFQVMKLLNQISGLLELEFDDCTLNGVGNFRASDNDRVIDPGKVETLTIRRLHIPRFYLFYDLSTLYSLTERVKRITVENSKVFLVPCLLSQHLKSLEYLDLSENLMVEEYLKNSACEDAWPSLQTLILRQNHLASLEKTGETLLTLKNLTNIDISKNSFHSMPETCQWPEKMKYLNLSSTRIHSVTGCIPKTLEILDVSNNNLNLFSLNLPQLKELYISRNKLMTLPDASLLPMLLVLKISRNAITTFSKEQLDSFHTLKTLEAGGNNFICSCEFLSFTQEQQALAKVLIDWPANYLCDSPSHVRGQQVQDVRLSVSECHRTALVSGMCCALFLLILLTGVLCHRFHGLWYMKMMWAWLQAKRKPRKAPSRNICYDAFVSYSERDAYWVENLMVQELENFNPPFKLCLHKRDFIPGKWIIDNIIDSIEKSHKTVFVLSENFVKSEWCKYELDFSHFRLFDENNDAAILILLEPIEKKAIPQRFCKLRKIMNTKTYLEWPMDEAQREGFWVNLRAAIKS
T1 sequence (Q9Y2C9 32-796 partner): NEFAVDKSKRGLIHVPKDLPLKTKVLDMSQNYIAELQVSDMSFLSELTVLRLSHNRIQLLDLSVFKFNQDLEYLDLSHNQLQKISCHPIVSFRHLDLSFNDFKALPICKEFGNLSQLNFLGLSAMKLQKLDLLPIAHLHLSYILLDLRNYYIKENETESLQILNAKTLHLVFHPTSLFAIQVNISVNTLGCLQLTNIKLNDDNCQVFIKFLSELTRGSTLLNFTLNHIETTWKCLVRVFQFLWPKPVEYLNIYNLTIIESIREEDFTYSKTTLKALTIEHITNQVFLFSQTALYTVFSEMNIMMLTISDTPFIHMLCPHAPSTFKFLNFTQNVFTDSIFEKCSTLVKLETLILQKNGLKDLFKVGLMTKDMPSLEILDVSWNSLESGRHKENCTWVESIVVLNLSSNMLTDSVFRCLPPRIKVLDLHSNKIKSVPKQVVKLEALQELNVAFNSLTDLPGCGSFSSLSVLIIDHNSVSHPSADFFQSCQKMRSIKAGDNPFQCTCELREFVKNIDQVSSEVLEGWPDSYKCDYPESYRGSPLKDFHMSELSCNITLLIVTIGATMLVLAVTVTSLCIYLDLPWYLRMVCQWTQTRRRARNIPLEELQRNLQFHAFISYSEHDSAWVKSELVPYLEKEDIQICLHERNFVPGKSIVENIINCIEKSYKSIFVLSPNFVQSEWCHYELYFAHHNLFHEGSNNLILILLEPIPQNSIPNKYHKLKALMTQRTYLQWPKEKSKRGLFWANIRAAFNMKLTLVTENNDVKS
T2 sequence (O60603 21-784): as the sequence (O60603 21-784) above
T2 sequence (Q9Y2C9 32-796): as the sequence (Q9Y2C9 32-796 partner) above

Which results are given for `CCCCCCCCCCCCCCCC(=O)OCC(CSC[C@H](N)C(=O)NCC(=O)N[C@@H](CC(=O)O)C(=O)N1CCC[C@H]1C(=O)N[C@@H](CCCCN)C(=O)N[C@@H](Cc1c[nH]cn1)C(=O)N1CCC[C@H]1C(=O)N[C@@H](CCCCN)C(=O)N[C@@H](CO)C(=O)N[C@@H](Cc1ccccc1)C(=O)O)OC(=O)CCCCCCCCCCCCCCC` (stereo partly shown) [FSL-1] (H-C(X1)GDPKHPKSF-OH; N-terminus and C-terminus assumed)?
fold induction (hTLR2): 157; fold induction (hTLR2/6): 140

For Flagellin, which Fold induction max/min (hTLR5) is on record?
The Fold induction max/min was 392.

What about the “Ligand EC50” value (hTLR5; hTLR 5-luc clone, control TLR ligand) of the same molecule?
Its value is “Flagellin 66.2ng/ml”.

Which “Level of R9F specific T cells secreting IFN-γ (ELISpot)” value [1] does the source give for HPV16E7: HPV16 E7 protein antigen here?
The value was “no R9F specific (HPV16E7 protein) T cells secreting IFN-γ”.

Which Fold induction max/min (hTLR3) does the source give for Poly(I:C) here?
Its Fold induction max/min is 62.

What about the “Ligand EC50” value (hTLR3; hTLR 3-luc clone, control TLR ligand) of the same molecule?
The value was “Poly(I:C) 1.8ng/ml”.
